According to patent US10315992B2, “Tetracyline compounds” (Tetraphase Pharmaceuticals, Inc., priority 2012, dated 2019):
≈ marks a conversion by molar mass, not a printed value. Read-outs that look alike come from different tables or passages of the source.

Legend:
[1] = system: Escherichia coli EC878 (MG1655 tolC::kan); experiment: microbe, parasite or virus in culture; type: cell-based
[2] = system: Escherichia coli EC155 (tet(A)); experiment: MIC assay, EC155; type: cell-based
[3] = system: Enterococcus faecalis EF159 (tet(M)); experiment: MIC assay, EF159; type: cell-based; settings: E. faecalis tet(M), Table 4, read-out: MIC EF 159 tetM
[4] = system: Enterobacter cloacae EC603 (urine isolate); experiment: MIC assay, EC603; type: cell-based; settings: control compounds
[5] = system: KP 194 7E+05; experiment: MIC assay, KP194; settings: Table 5
Description: (§1) MICs were determined according to the Clinical and Laboratory Standards Institute (CLSI) guidances (e.g., CLSI. Performance standards for antimicrobial susceptibility testing; nineteenth information supplement. CLSI document M100-S19, CLSI, 940 West Valley Road, Suite 1400, Wayne, Pa. 19087-1898, USA, 2009). Briefly, frozen bacterial strains were thawed and subcultured onto Mueller Hinton Broth (MHB) or other appropriate media (Streptococcus requires blood and Haemophilus requires hemin and NAD). Following incubation overnight, the strains were subcultured onto Mueller Hinton Agar and again incubated overnight. […] Isolated colonies were selected to prepare a starting inoculum equivalent to a 0.5 McFarland standard. […] Test compounds were prepared by dilution in sterile water to a final concentration of 5.128 mg/mL. Antibiotics (stored frozen, thawed and used within 3 hours of thawing) and compounds were further diluted to the desired working concentrations.
(§2) The assays were run as follows. Fifty μL of MHB was added to wells 2-12 of a 96-well plate. One hundred μL of appropriately diluted antibiotics was added to well 1. Fifty μL of antibiotics was removed from well 1 and added to well 2 and the contents of well 2 mixed by pipetting up and down five times. Fifty μL of the mixture in well 2 was removed and added to well 3 and mixed as above. Serial dilutions were continued in the same manner through well 12. Fifty μL was removed from well 12 so that all contained 50 μL. Fifty μL of the working inoculum was then added to all test wells. A growth control well was prepared by adding 50 μL of working inoculum and 50 μL of MHB to an empty well. The plates were then incubated at 37° C. overnight, removed from the incubator and each well was read on a plate reading mirror. The lowest concentration (MIC) of test compound that inhibited the growth of the bacteria was recorded.

[6] = system: Streptococcus pneumoniae SP106 (ATCC 49619); experiment: MIC assay, SP106; type: cell-based; settings: ATCC49619, S. pneumoniae ATCC 49619, Table 4, read-out: MIC SP 106 49619
[7] = system: Pseudomonas aeruginosa PA111 (ATCC 27853); experiment: MIC assay, PA111; type: cell-based; settings: ATCC27853, P. aeruginosa ATCC 27853, Table 4, read-out: MIC PA 111 27853
[8] = system: Staphylococcus aureus SA191 (HA-MRSA, tetracycline-resistant); experiment: MIC assay, SA191; type: cell-based; settings: S. aureus HA-MRSA, tetracycline-resistant, Table 5, read-out: MIC SA 191
[9] = system: Moraxella catarrhalis MC205 (ATCC 8176); experiment: MIC assay, MC205; type: cell-based; settings: ATCC8176, M. catarrhalis ATCC 8176, Table 5, read-out: MIC MC 205 8176
[10] = system: EC 882 imp; experiment: MIC assay, EC882; type: cell-based
Description: Minimum Inhibitory Concentration (MIC) Assay
The assays were run as follows.

[11] = system: Streptococcus pyogenes SP312 (2009 clinical isolate, tet(M)); experiment: MIC assay, SP312; type: cell-based; settings: S. pyogenes tet(M)
[12] = system: Proteus mirabilis PM112 (ATCC 35659); experiment: MIC assay, PM112; type: cell-based; settings: ATCC35659, P. mirabilis ATCC 35659, Table 5, read-out: MIC PM 112 35659
[13] = system: Staphylococcus aureus SA158 (tetracycline-resistant tet(K)); experiment: MIC assay, SA158; type: cell-based
[14] = system: Stenotrophomonas maltophilia SM256 (cystic fibrosis isolate, MDR); experiment: MIC assay, SM256; type: cell-based; settings: control compounds
[15] = system: Acinetobacter baumannii AB110 (ATCC 19606); experiment: MIC assay, AB110; type: cell-based; settings: ATCC19606, A. baumannii ATCC 19606, Table 4, read-out: MIC AB 110 19606
[16] = system: Enterococcus faecalis EF103 (ATCC 29212); experiment: MIC assay, EF103; type: cell-based; settings: ATCC29212, E. faecalis ATCC 29212, Table 4, read-out: MIC EF 103 29212
[17] = system: Proteus mirabilis PM385 (urine ESBL+ isolate); experiment: MIC assay, PM385; type: cell-based
[18] = system: Enterococcus faecalis EF327 (wound isolate, tet(M)); experiment: MIC assay, EF327; type: cell-based
[19] = system: Enterococcus faecium EF404 (blood isolate, tet(M)); experiment: MIC assay, EF404; type: cell-based
[20] = system: Acinetobacter baumannii AB250 (cystic fibrosis isolate, MDR); experiment: MIC assay, AB250; type: cell-based; settings: control compounds
[21] = system: Pseudomonas aeruginosa PA555 (ATCC BAA-47, PAO1); experiment: MIC assay, PA555; type: cell-based
[22] = system: PA 884 35151; experiment: MIC assay, PA884; settings: Pseudomonas aeruginosa, read-out: MIC PA 884 351 51
Description: as §1, §2

[23] = system: Staphylococcus aureus SA101 (ATCC 29213, MSSA); experiment: MIC assay, SA101; type: cell-based
[24] = system: Pseudomonas aeruginosa PA669 (2009 tracheal aspirate isolate); experiment: MIC assay, PA669; type: cell-based; settings: control compounds
[25] = system: Haemophilus influenzae HI262 (tetracycline-resistant, ampicillin-resistant); experiment: MIC assay, HI262; type: cell-based; settings: H. influenzae tetracycline-resistant, Table 5, read-out: MIC HI 262 33929

**Q.** Which MIC ([1]; MG1655, read-out: MIC EC 878 toIC, E. coli MG1655 tolC::kan, Table 6) does the source give for `CN(C)c1ccc(O)c2c1C[C@H]1C[C@H]3[C@H](N(C)C)C(O)=C(C(N)=O)C(=O)[C@@]3(O)C(O)=C1C2=O` [Minocycline, minocycline] here?
**A.** 0.25 µg/mL (≈ 0.546 µM)

**Q.** What about the MIC ([1]; MG1655, read-out: MIC EC 878 toIC, E. coli MG1655 tolC::kan, Table 7) of the same molecule?
**A.** 0.25 µg/mL (≈ 0.546 µM)

**Q.** And the MIC ([1]; MG1655, read-out: MIC EC 878 toIC, control compounds)?
**A.** 0.25 µg/mL (≈ 0.546 µM)

**Q.** And the MIC ([1]; MG1655, read-out: MIC EC 878 tolC, control compounds, numeric)?
**A.** 0.25 µg/mL (≈ 0.546 µM)

**Q.** What about the MIC ([2]; Escherichia coli, E. coli tet(A), Table 7, read-out: MIC EC 155 tetA) of the same molecule?
**A.** 8 µg/mL (≈ 17.5 µM)

**Q.** And the “MIC EC 155 tetA” value ([2]; control compounds)?
**A.** 8 µg/mL (≈ 17.5 µM)

**Q.** What about the MIC [3] of the same molecule?
**A.** 16 µg/mL (≈ 35 µM)

**Q.** And the MIC ([4]; c7, strain EC603 inferred, read-out: MIC)?
**A.** 33 µg/mL (≈ 72.1 µM)

**Q.** What about the MIC ([4]; numeric, read-out: MIC EC 603 tetA) of the same molecule?
**A.** 33 µg/mL (≈ 72.1 µM)

**Q.** And the “MIC KP 194 7E+05” value [5]?
**A.** 32 μg/mL

**Q.** What about the MIC [6] of the same molecule?
**A.** 0.015 µg/mL (≈ 0.0328 µM)

**Q.** What about the MIC [7] of the same molecule?
**A.** 16 µg/mL (≈ 35 µM)

**Q.** And the MIC [8]?
**A.** 8 µg/mL (≈ 17.5 µM)

**Q.** And the MIC [9]?
**A.** 0.02 µg/mL (≈ 0.0437 µM)

**Q.** What about the MIC ([10]; Table 6, read-out: MIC EC 882 imp) of the same molecule?
**A.** 0.015 µg/mL (≈ 0.0328 µM)

**Q.** What about the MIC ([10]; read-out: MIC EC 882 imp, Table 7) of the same molecule?
**A.** 0.02 µg/mL (≈ 0.0437 µM)

**Q.** And the MIC ([11]; Table 5, read-out: MIC SP 312)?
**A.** 16 µg/mL (≈ 35 µM)

**Q.** And the MIC ([11]; Table 6, read-out: MIC SP 312 tet M)?
**A.** 16 µg/mL (≈ 35 µM)

**Q.** And the MIC [12]?
**A.** 8 µg/mL (≈ 17.5 µM)

**Q.** What about the MIC ([13]; S. aureus tet(K), Table 4, read-out: MIC SA 158 tetK) of the same molecule?
**A.** 0.031 µg/mL (≈ 0.0678 µM)

**Q.** And the MIC ([13]; S. aureus tet(K), Table 5, read-out: MIC SA 158 tetK)?
**A.** 0.03 µg/mL (≈ 0.0656 µM)

**Q.** And the MIC ([13]; S. aureus tet(K), Table 6, read-out: MIC SA 158 tetK)?
**A.** 0.03 µg/mL (≈ 0.0656 µM)

**Q.** What about the MIC ([13]; S. aureus tet(K), Table 7, read-out: MIC SA 158 tetK) of the same molecule?
**A.** 0.03 µg/mL (≈ 0.0656 µM)

**Q.** And the MIC ([13]; control compounds, numeric, read-out: MIC SA 158 tetK)?
**A.** 0.03 µg/mL (≈ 0.0656 µM)

**Q.** And the MIC ([13]; control compounds, read-out: MIC SA 158 tetK)?
**A.** 0.03 µg/mL (≈ 0.0656 µM)

**Q.** And the MIC ([14]; c9, strain SM256 inferred, read-out: MIC)?
**A.** 0.5 µg/mL (≈ 1.09 µM)

**Q.** What about the MIC ([14]; numeric, read-out: MIC SM 256) of the same molecule?
**A.** 0.5 µg/mL (≈ 1.09 µM)

**Q.** And the MIC [15]?
**A.** 0.063 µg/mL (≈ 0.138 µM)

**Q.** And the MIC [16]?
**A.** 1 µg/mL (≈ 2.19 µM)

**Q.** And the MIC ([17]; P. mirabilis ESBL+, Table 6, read-out: MIC PM 385)?
**A.** 16 µg/mL (≈ 35 µM)

**Q.** And the MIC ([17]; control compounds, numeric, read-out: MIC PM 385 CTX-M15)?
**A.** 16 µg/mL (≈ 35 µM)

**Q.** What about the MIC ([18]; E. faecalis tet(M), Table 6, read-out: MIC EF 327 tet M) of the same molecule?
**A.** 32 µg/mL (≈ 69.9 µM)

**Q.** And the MIC ([18]; control compounds, numeric, read-out: MIC EF 327 tetM)?
**A.** 32 µg/mL (≈ 69.9 µM)

**Q.** And the MIC ([19]; E. faecium tet(M), Table 6, read-out: MIC EF 404 tet M)?
**A.** 8 µg/mL (≈ 17.5 µM)

**Q.** And the MIC ([19]; control compounds, numeric, read-out: MIC EF 404 tetM)?
**A.** 8 µg/mL (≈ 17.5 µM)

**Q.** What about the MIC ([20]; c8, strain AB250 inferred, read-out: MIC) of the same molecule?
**A.** 8 µg/mL (≈ 17.5 µM)

**Q.** What about the MIC ([20]; numeric, read-out: MIC AB 250) of the same molecule?
**A.** 8 µg/mL (≈ 17.5 µM)

**Q.** What about the MIC ([21]; P. aeruginosa ATCC BAA-47 PAO1, Table 5, read-out: MIC PA 555) of the same molecule?
**A.** 16 µg/mL (≈ 35 µM)

**Q.** And the MIC ([21]; P. aeruginosa ATCC BAA-47 PAO1, Table 6, read-out: MIC PA5 55 BAA- 47)?
**A.** 16 µg/mL (≈ 35 µM)

**Q.** What about the MIC ([21]; P. aeruginosa ATCC BAA-47 PAO1, Table 7, read-out: MIC PA 555 BAA- 47) of the same molecule?
**A.** 16 µg/mL (≈ 35 µM)

**Q.** And the MIC ([21]; control compounds, c1, strain PA555 inferred, read-out: MIC)?
**A.** 16 µg/mL (≈ 35 µM)

**Q.** And the MIC ([21]; control compounds, numeric, read-out: MIC PA 555 BAA-47)?
**A.** 16 µg/mL (≈ 35 µM)

**Q.** And the MIC [22]?
**A.** 1 µg/mL (≈ 2.19 µM)

**Q.** And the MIC ([23]; S. aureus ATCC 29213, MSSA, Table 4, read-out: MIC SA 101 29213)?
**A.** 0.063 µg/mL (≈ 0.138 µM)

**Q.** What about the MIC ([23]; S. aureus ATCC 29213, MSSA, Table 5, read-out: MIC SA 101 29213) of the same molecule?
**A.** 0.0625 µg/mL (≈ 0.137 µM)

**Q.** And the MIC ([23]; S. aureus ATCC 29213, MSSA, Table 6, read-out: MIC SA 101 292 13)?
**A.** 0.063 µg/mL (≈ 0.138 µM)

**Q.** What about the MIC ([23]; S. aureus ATCC 29213, MSSA, Table 7, read-out: MIC SA 101 29213) of the same molecule?
**A.** 0.06 µg/mL (≈ 0.131 µM)

**Q.** And the MIC ([23]; control compounds, numeric, read-out: MIC SA 101 29213)?
**A.** 0.06 µg/mL (≈ 0.131 µM)

**Q.** What about the MIC ([23]; control compounds, read-out: MIC SA 101 29213) of the same molecule?
**A.** 0.06 µg/mL (≈ 0.131 µM)

**Q.** And the MIC ([24]; c4, strain PA669 inferred, read-out: MIC)?
**A.** 33 µg/mL (≈ 72.1 µM)

**Q.** What about the MIC ([24]; numeric, read-out: MIC PA 669) of the same molecule?
**A.** 33 µg/mL (≈ 72.1 µM)

**Q.** What about the MIC [25] of the same molecule?
**A.** 1 µg/mL (≈ 2.19 µM)
